Molecules are shown by their SMILES.

In assay [1] the test system is CAPAN-1 (Pancreatic Carcinoma). As to the kind of experiment: Bliss excess, mean over the matrix (fraction); higher = more synergy. The gist of the method: (§1)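 Cell lines grown in DMEM/F12 or RPMI with 10% FBS were plated in 1536-well plates and held 24 hours at 37°C, 5% CO2 before 72 hours of exposure to two-drug dose matrices, with DMSO typically at 0.2%. CellTiter-Glo 2.0 luminescence gave viability, which was converted to inhibition. Vehicle wells were set to 0 and blank wells to 1. Combination Emax is the second-highest inhibition in the matrix, and Bliss excess is the observed combination effect minus the expected EA + EB − EA·EB, where EA and EB are the single-agent effects.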

Assay [2] concerns K5 (Thyroid Gland Carcinoma). The description is as above. The gist of the method:
as §1

Assay [3] deals with MDA-MB-468 (Breast Carcinoma). The assay is described as above. Summed up:
as §1

The subject of another assay is NB14 (Neuroblastoma). The description is as above. The gist of the method: as §1
The test system of a further assay is NCI-H2461 (Mesothelioma). The assay is described as above. The gist of the method:
as §1

In assay [4] the test system is NCI-H747 (Colorectal Carcinoma). Described as above. Summed up: as §1
In the next assay the test system is SH-4 (Melanoma). Described as above. The gist of the method:
as §1

The subject of assay [5] is SIMA (Neuroblastoma). Described as above. The gist of the method: as §1
Assay [6] concerns SIMA (Neuroblastoma). As to the kind of experiment: combination Emax (second highest fraction inhibited in the dose matrix, 72 h); higher = more inhibition; extreme values may be limits of the assay. The gist of the method:
as §1

Assay [7] deals with RPMI-6666 (Non-Cancerous). The assay is described as follows: Bliss excess, mean over the matrix (fraction); higher = more synergy. Summed up: as §1
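For Bliss excess, mean over the matrix in this document: after 72 h of two-drug dosing.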

Regarding `Cc1c2c(nn1C)CSCc1cc(n(C)n1)CSc1cc(c3ccccc3c1)OCCCc1c(C(=O)O)n(C)c3c-2c(Cl)ccc13` [AZD5991] + CCN(CCO)CCCOc1ccc2c(Nc3cc(CC(=O)Nc4cccc(F)c4)[nH]n3)ncnc2c1 [AZD2811] (first compound max 1 µM, 7x7, partner max 1 µM), the Bliss excess in [1] was -0.0303; in assay [2], -0.0431; in [3], -0.0025; in the assay on NB14 (Neuroblastoma) it was 0.0085; in the assay with NCI-H2461 (Mesothelioma) it was 0.0185; in [4] it was -0.0133. Also, the Bliss excess in the assay with SH-4 (Melanoma) was 0.0439; in the assay with SIMA (Neuroblastoma) [5] it was -0.0271. Also, the “combination Emax” value with SIMA (Neuroblastoma) [6] is 0.768.
With `CN(CCO)CC[C@H](CSc1ccccc1)Nc1ccc(S(=O)(=O)NC(=O)c2ccc(N3CCC([C@@H](O)c4ccccc4-c4ccc(Cl)cc4)CC3)cc2)cc1S(=O)(=O)C(F)(F)F` [AZD4320] + C[C@@H]1COCCN1C2=NC(=NC(=C2)C3(CC3)[S@](=N)(=O)C)C4=C5C=CNC5=NC=C4 [AZD6738] (first compound max 1 µM, 7x7, partner max 10 µM), the Bliss excess in assay [1] is 0.0034; in assay [2], -0.0512; in [3], 0.0161; in the assay on NB14 (Neuroblastoma), -0.0372; in the assay with NCI-H2461 (Mesothelioma), -0.0341; in [4] it was -0.0649. Further, the Bliss excess in assay [7] was -0.0271; in the assay on SH-4 (Melanoma), -0.0411; with SIMA (Neuroblastoma) [5] it was 0.0068. For the same compound, the “combination Emax” value in the assay on SIMA (Neuroblastoma) [6] is 1.
`CN(CCO)CC[C@H](CSc1ccccc1)Nc1ccc(S(=O)(=O)NC(=O)c2ccc(N3CCC([C@@H](O)c4ccccc4-c4ccc(Cl)cc4)CC3)cc2)cc1S(=O)(=O)C(F)(F)F` [AZD4320] + Cc1cc2ncnn2cc1Nc1ncc2c(n1)n(C1CCOCC1)c(=O)n2C [AZD7648] (first compound max 1 µM, 7x7, partner max 10 µM): the Bliss excess is -0.0508 in [1]; -0.0105 in [2]; -0.0012 in assay [3]; 0.0356 in the assay with NB14 (Neuroblastoma); -0.0484 in the assay with NCI-H2461 (Mesothelioma); -0.0192 in [4]. Besides, the Bliss excess is 0.0311 in assay [7], -0.0459 in the assay with SH-4 (Melanoma) and 0.0256 in the assay on SIMA (Neuroblastoma) [5]. Moreover, in the assay with SIMA (Neuroblastoma) [6], the “combination Emax” value is 0.862.
As to `Cc1c2c(nn1C)CSCc1cc(n(C)n1)CSc1cc(c3ccccc3c1)OCCCc1c(C(=O)O)n(C)c3c-2c(Cl)ccc13` [AZD5991] + C[C@@H]1COCCN1C2=NC(=NC(=C2)C3(CC3)[S@](=N)(=O)C)C4=C5C=CNC5=NC=C4 [AZD6738] (first compound max 1 µM, 7x7, partner max 10 µM), the Bliss excess in assay [1] was -0.0167; in [2] it was 0.0076; in assay [3] it was 0.0455; in the assay on NB14 (Neuroblastoma), -0.0038; in the assay on NCI-H2461 (Mesothelioma), 0.0016; in assay [4], -0.018. Moreover, the Bliss excess was determined as 0.0272 in assay [7], 0.0323 with SH-4 (Melanoma) and 0.024 with SIMA (Neuroblastoma) [5]. Besides, the “combination Emax” value with SIMA (Neuroblastoma) [6] stood at 0.98.
For the compound `CC(=O)c1c(C)c2cnc(Nc3ccc(N4CCNCC4)cn3)nc2n(C2CCCC2)c1=O` [Palbociclib] + Cn1cnc2c(F)c(Nc3ccc(Br)cc3Cl)c(C(=O)NOCCO)cc21 [Selumetinib] (first compound max 10 µM, 7x7, partner max 10 µM), the Bliss excess in assay [1] was -0.0741; in assay [2] it was -0.0341; in assay [3], -0.0555; with NB14 (Neuroblastoma), 0.0461; with NCI-H2461 (Mesothelioma), -0.0034; in assay [4], -0.0022. The Bliss excess in [7] was -0.0324; in the assay on SH-4 (Melanoma), 0.0333.
`CC(=O)Nc1cccc(-n2c(=O)n(C3CC3)c(=O)c3c(Nc4ccc(I)cc4F)n(C)c(=O)c(C)c32)c1` [Trametinib] + Cc1nc(-c2cn3c(n2)-c2ccc(-c4cnn(C(C)(C)C(N)=O)c4)cc2OCC3)n(C(C)C)n1 [Taselisib] (first compound max 1 µM, 7x7, partner max 10 µM): the Bliss excess in [1] is 0.129; in [2], 0.0183; in assay [3] it was -0.0919; in the assay with NB14 (Neuroblastoma), 0.0702; in the assay on NCI-H2461 (Mesothelioma), 0.0312; in assay [4] it was -0.0203. For the same compound, the Bliss excess was determined as 0.0351 in [7] and 0.0172 in the assay on SH-4 (Melanoma).
As to `NC1(C(=O)N[C@@H](CCO)c2ccc(Cl)cc2)CCN(c2ncnc3[nH]ccc23)CC1` [Capivasertib] + CCN(CCO)CCCOc1ccc2c(Nc3cc(CC(=O)Nc4cccc(F)c4)[nH]n3)ncnc2c1 [AZD2811] (first compound max 10 µM, 7x7, partner max 1 µM), the Bliss excess is -0.0486 in assay [1]; -0.0379 in [2]; -0.063 in assay [3]; -0.03 in the assay on NB14 (Neuroblastoma); -0.0811 with NCI-H2461 (Mesothelioma); -0.0255 in assay [4]. Further, the Bliss excess was -0.133 in assay [7] and -0.0507 with SH-4 (Melanoma).
Consider `CS(=O)(=O)CCNCc1ccc(-c2ccc3ncnc(Nc4ccc(OCc5cccc(F)c5)c(Cl)c4)c3c2)o1` [Lapatinib] + C[C@@H](Oc1cc(-c2cnn(C3CCNCC3)c2)cnc1N)c1c(Cl)ccc(F)c1Cl [Crizotinib] (first compound max 10 µM, 7x7, partner max 10 µM), for which the Bliss excess is -0.0937 in assay [1]; -0.0213 in [2]; -0.0582 in [3]; -0.0338 with NB14 (Neuroblastoma); -0.0523 in the assay with NCI-H2461 (Mesothelioma); -0.0413 in [4]. Besides, the Bliss excess in assay [7] is -0.0624; with SH-4 (Melanoma), -0.0365.
Turning to `Cc1c2c(nn1C)CSCc1cc(n(C)n1)CSc1cc(c3ccccc3c1)OCCCc1c(C(=O)O)n(C)c3c-2c(Cl)ccc13` [AZD5991] + CC1(C)CCC(CN2CCN(c3ccc(C(=O)NS(=O)(=O)c4ccc(NCC5CCOCC5)c([N+](=O)[O-])c4)c(Oc4cnc5[nH]ccc5c4)c3)CC2)=C(c2ccc(Cl)cc2)C1 [Venetoclax] (first compound max 1 µM, 7x7, partner max 1 µM), the Bliss excess is -0.0459 in [1]; -0.0325 in assay [2]; 0.0812 in [3]; 0.255 with NB14 (Neuroblastoma); -0.0237 in the assay on NCI-H2461 (Mesothelioma); -0.0438 in assay [4]. Further, the Bliss excess in assay [7] turned out to be 0.233; with SH-4 (Melanoma), 0.0457; with SIMA (Neuroblastoma) [5], 0.107. Moreover, in the assay on SIMA (Neuroblastoma) [6], the “combination Emax” value was 0.46.
For the compound `C=CCn1c(=O)c2cnc(Nc3ccc(N4CCN(C)CC4)cc3)nc2n1-c1cccc(C(C)(C)O)n1` [AZD1775] + C1CN(CCC1(C(=O)N[C@@H](CCO)C2=CC=C(C=C2)Cl)N)C3=NC=NC4=C3C=CN4 [Capivasertib] (first compound max 3 µM, partner max 3 µM), the Bliss excess in [2] was 0.0493; in the assay on NB14 (Neuroblastoma), -0.0551; in the assay with NCI-H2461 (Mesothelioma) it was -0.0587; in assay [4], -0.0485; in assay [7], -0.0148; with SH-4 (Melanoma) it was -0.0713. Besides, in the assay on SIMA (Neuroblastoma) [5], the Bliss excess is -0.0416. The “combination Emax” value in the assay on SIMA (Neuroblastoma) [6] is 0.94.
Consider `CS(=O)(=O)CCNCc1ccc(-c2ccc3ncnc(Nc4ccc(OCc5cccc(F)c5)c(Cl)c4)c3c2)o1` [Lapatinib] + NC1(c2ccc(-c3nc4ccn5c(=O)[nH]nc5c4cc3-c3ccccc3)cc2)CCC1 [MK-2206] (first compound max 10 µM, 7x7, partner max 10 µM), for which the Bliss excess is -0.016 in assay [1]; 0.0293 in assay [2]; 0.0008 in [3]; 0.0136 in the assay on NB14 (Neuroblastoma); -0.0423 with NCI-H2461 (Mesothelioma); -0.126 in assay [4]. Besides, the Bliss excess stood at 0.0164 in assay [7] and 0.0025 in the assay with SH-4 (Melanoma).

The values are drawn from the supplement of paper PMC11061612.
